# Legend:
# [1] = tested on: MDA-MB231; test: Cytotoxicity assay (CCK-8, net growth % vs control); format: cell-based; conditions: Homo sapiens, MDA-MB-231; MDA-MB231 (estrogen receptor negative), 48 hours incubation; read-out: 50% inhibition of cell growth concentrations of test compounds (IC50)
# Excerpt: (§1) Materials: DMEM (medium), RPMI (medium), L-glutamine, penicillin, streptomycin and FBS (fetal bovine serum) were obtained from Gibco (NY, USA). Culture plasticware was purchased from Coming (MA, USA). […] All other chemicals used were of reagent grade and were purchased from Sigma or E. Merck (Germany).
# (§2) Cell lines and cell cultures: The human breast cancer cell lines T47D and MDA-MB231 were obtained from American Type Culture Collection (ATCC). Of both cancer cells, T47D is estrogen receptor positive, and MDA-MB231 is estrogen receptor negative. Cells were cultured at 37°C in RPMI medium containing 10% charcoal-dextran stripped fetal bovine serum for T47D cells and in DMEM medium containing 10% charcoal-dextran stripped fetal bovine serum for MDA-MB231 cells with 5% CO2. The cell proliferation was determined by counting the viable cells with trypan blue exclusion.
# (§3) Cytotoxicity assay: Dispense 198 µl of cell suspension (20,000 cells for T47D per well and 10,000 cell for MDA-MB231 per well) in a 96-well plate and pre-incubate the plate for 24 hours in an incubator at 37°C with humidified 5% CO2. […] After plate was incubated for 48 hours in the incubator, media were aspirated of and new media (100 µl) were added and incubated for 1 more hour. […] Measure the absorbance at 450 nm using a ELISA reader. […]
# [2] = tested on: T47D; test: as above; format: cell-based; conditions: Homo sapiens; T47D (estrogen receptor positive), 48 hours incubation; read-out: 50% inhibition of cell growth concentrations of test compounds (IC50)
# Excerpt: as §1, §2, §3
# [3] = tested on: female Wistar rats; test: Ovariectomized rat osteoporosis model, apparent bone density measurement of tibia (Archimedes principle); format: in vivo; conditions: two months, mean value, OVX group 1.549, Sham 1.589, p < 0.05 vs OVX
# Excerpt: (§4) The purpose of this example is to show the potency of bakuchiol in treating osteoporosis, wherein ovary of a female rat is removed to stimulate osteoporosis caused by estrogen deficiency.
# (§5) The female Wistar rats of 16 weeks old (unless specified in the other experiment description) were obtained from the stock reared by the Animal breeding center, National Scientific Council in Taipei. These rats were grouped by weights matched in order to distribute the physiological response variation from rats evenly into each group. These rats were grouping as follows: • Baseline group fed with no drug added food (n=8) • Sham operation group fed with no drug added food (Sham) (n=10) • Ovariectomy operation group fed with no drug added food (OVX) (n=8) • Ovariectomy operation group fed with Drug A (5 mg/kg) added food (OVX+A) (n=9) • Ovariectomy operation group fed with Drug B (15 mg/kg) added food (OVX+B) (n=9)
# Ovariectomy (removal of ovaries) operation: Ovariectomy was induced using a protocol similar to that described by Wronski et al (Wronski et al, Endocrinology, 123(2), 681-86 (1988)). […]
# The whole tibia and femur were stripped off attached muscles and ligaments after sacrifice. […] The weight of bone measured in the air was marked as W-air. […] The apparent bone density was calculated as [W-air/(W-air minus W-water)] […]
# [4] = tested on: female Wistar rats; test: Ovariectomized rat osteoporosis model, bone histomorphometry of proximal tibia; format: in vivo; conditions: two months, mean value, p < 0.001 vs OVX; for Bone volume % (BV/TV): proximal tibia head trabecular bone, OVX group 12.50%, Sham 29.50%; for Erosion surface (ESBS, %): proximal tibia, OVX group 5.8%, Sham 4.7%
# Excerpt: as §4, §5
# Ovariectomy (removal of ovaries) operation: Ovariectomy was induced using a protocol similar to that described by Wronski et al (Wronski et al, Endocrinology, 123(2), 681-86 (1988)).
# During the experiments, the rats were housed in hanging grid cages in groups of two at 21°C with a 12 hours dark cycle. Food (Rat-mouse diet III, adequate in 1 % of calcium content and 1.2 % of phosphate content, Purina, USA) was administered by paired feeding between the experimental and control groups. Pair-feeding was carried out by calculating the average amount of food intake in the Sham group. So give the same amount of food to the OVX , OVX+A (5 mg/kg), OVX+B (15 mg/kg) group animals the following day. These animals were fed with a period of two months except for the baseline group which were killed on the very day of doing ovariectomy or sham operation. Rats of OVX+A and OVX+B groups were fed with the usual food chuck but added certain amount of compound A and B in it respectively. Water was given ad libitum to all rats.
# The test drug was weighted according to dose of 5 mg/kg and 15 mg/kg, and added into the ususal food chuck powder and mixed with 10% starch paste. After fully mixed, these chuck powder were made into mass manually and dried by air flow oven. The food with added drug to rats was performed by single blind method.
# These labeling and bone histomorphometry assessment were done based on standard procedure in bone research (Lin et al, Calcif. Tissue Int., 67, 373-377 (2000)). Specimen were prestained with Villanueva bone stain, then […] and embedded in London resin. Undecalcified sections of 7 µm thick were cut using Jung-K microtome (Leica Ltd, USA) and treated with Villanueva stain for observation under light microscopy. Seven µm thick unstained sections were prepared for fluorescent microscopy and assessed with program Osteomeasure (3.0 version, Atlanta, USA). […]
# [5] = tested on: five different human cancer cells (lung (A549), ovary (SK-OV-3), skin (SK-MEL-2), central nervous system (XF498), and large intestine (HCT)); conditions: range over A549, SK-OV-3, SK-MEL-2, XF498, HCT; cited from earlier work
smiles,measurement,setting,value
"C=C[C@@](C)(/C=C/c1ccc(O)cc1)CCC=C(C)C [Bakuchiol, bakuchiol]",IC50,[1],0.62 µg/mL
same,IC50,[2],5 µg/mL
same,Bone apparent density,[3]; OVX+A group (5 mg/kg) in food,1.582 gm/cm^3
same,Bone apparent density,[3]; OVX+B group (15 mg/kg) in food,1.587 gm/cm^3
same,Bone volume % (BV/TV),[4]; OVX+A group (5 mg/kg) in food,19.80%
same,"Erosion surface (ESBS, %)",[4]; OVX+A group (5 mg/kg) in food,5.0%
same,Bone volume % (BV/TV),[4]; OVX+B group (15 mg/kg) in food,20.11%
same,"Erosion surface (ESBS, %)",[4]; OVX+B group (15 mg/kg) in food,4.8%
same,average inhibitory concentration (IC50),[5],10~15 µg/cc

# Source: EP1714645A1, “Pharmaceutical composition containing bakuchiol for treating breast cancer in women” (Sinphar Pharmaceutical Co., Ltd., priority 2005, dated 2006)
